One assay addresses SARS-CoV-2 Papain like protease (PLpro) (Severe acute respiratory syndrome coronavirus 2 (2019-nCoV) (SARS-CoV-2), UniProt P0DTD1). Kind of assay: Papain Like Protease (PLpro) biochemical assay with profluorogenic substrate Z-RLRGG-AMC. The conditions noted are these: IC50 (μM), SARS-CoV-2 PLpro 6.25 nM, 25 μM Z-RLRGG-AMC substrate, 60 minute reaction.
Consider `Cc1ccccc1C(=O)NC(C)c1cc(-c2cnn(C(F)F)c2)nc2ccccc12` (centres unmarked) [Example 105, N-(1-{2-[1-(difluoromethyl)-1H-pyrazol-4-yl]quinolin-4-yl}ethyl)-2-methylbenzamide], for which the IC50 came out at 0.266 µM.

The assay is the same for the next values; noted with them: SARS-CoV-2 PLpro 6.25 nM, 25 μM Z-RLRGG-AMC substrate, 60 minute reaction; read-out: IC50.
For `Cc1cc(C(=O)NC(C)c2cscn2)ccc1C(=O)N[C@H](C)c1cc(-c2cnn(C)c2)nc2ccccc12` (some centres unmarked) [Example 202], the half-inhibitory concentration (IC50) amounted to 0.012 µM.

With `COC[C@H](OCc1cocn1)c1ccc(C(=O)NC2(c3cc(-c4cc(C(=O)N(C)C)n[nH]4)cc4ncccc34)CC2)c(C)c1` (single isomer, unassigned) [Example 359], the IC50 was below 0.001 µM.

On to `Cc1ccc(N2C[C@H]3C[C@@H]2CN3C)cc1C(=O)N[C@H](C)c1cc(-c2cnn(C)c2)nc2ccccc12` (single isomer, unassigned) [Example 280, 2-methyl-N—((R)-1-(2-(1-methyl-1H-pyrazol-4-yl)quinolin-4-yl)ethyl)-5-((1R*,4R*)-5-methyl-2,5-diazabicyclo[2.2.1]heptan-2-yl)benzamide], for which the IC50 worked out at 0.017 µM.

As for `Cc1ccc(N2CC3CN(C)CC3C2)cc1C(=O)N[C@H](C)c1cc(-c2cnn(C)c2)nc2ccccc12` (stereo partly drawn) [Example 262, 2-methyl-N-((R)-1-(2-(1-methyl-1H-pyrazol-4-yl)quinolin-4-yl)ethyl)-5-(5-methylhexahydropyrrolo[3,4-c]pyrrol-2(1H)-yl)benzamide], the IC50 stood at 0.008 µM.

With `Cc1ccccc1C(=O)NC(C)c1cc(-c2cccnc2)nc2ccccc12` (centres unmarked) [Example 114, 2-methyl-N-{1-[2-(pyridin-3-yl)quinolin-4-yl]ethyl}benzamide], the half-inhibitory concentration (IC50) is 0.877 µM.

In the case of `Cc1cc(C(C)OCc2nccn2C)ncc1C(=O)N[C@H](C)c1cc(-c2cnn(C)c2)nc2ccccc12` (stereo partly drawn) [Example 322, 4-methyl-6-(1-((1-methyl-1H-imidazol-2-yl)methoxy)ethyl)-N-((R)-1-(2-(1-methyl-1H-pyrazol-4-yl)quinolin-4-yl)ethyl)nicotinamide], the 50% inhibitory concentration (IC50) was found to be 0.007 µM.

Consider `Cc1cc(COCc2cscn2)ccc1C(=O)NC1(c2cc(-c3cnn(C)c3)cc3nc(C(C)(C)O)ccc23)CC1` [Example 354, N-(1-(2-(2-hydroxypropan-2-yl)-7-(1-methyl-1H-pyrazol-4-yl)quinolin-5-yl)cyclopropyl)-2-methyl-4-((thiazol-4-ylmethoxy)methyl)benzamide], for which the IC50 is below 0.001 µM.

As for `Cc1ccccc1C(=O)NC(C)c1cc(CCn2cccn2)nc2ccccc12` (stereo in doubt) [Example 157, 2-methyl-N-[(1R)-1-{2-[2-(1H-pyrazol-1-yl)ethyl]-quinolin-4-yl}ethyl]benzamide], the IC50 was found to be 2.68 µM.

Turning to `Cc1ccccc1C(=O)N[C@H](C)c1cc(OCC2COC2)nc2ccccc12` [Example 44, (R)-2-methyl-N-(1-(2-(oxetan-3-ylmethoxy)quinolin-4-yl)ethyl)benzamide], the IC50 was 3.97 µM.

With `Cc1ccccc1C(=O)NC(C)c1cc(CC#N)nc2ccccc12` (stereo in doubt) [Example 159, N-{(1R)-1-[2-(cyanomethyl)quinolin-4-yl]-ethyl}-2-methylbenzamide], the IC50 came out at 1.97 µM.

Turning to `Cc1ccccc1C(=O)N[C@H](C)c1cc(-c2ccn(C)n2)nc2ccccc12` [Example 12, (R)-2-methyl-N-(1-(2-(1-methyl-1H-pyrazol-3-yl)quinolin-4-yl)ethyl)benzamide], the IC50 was 0.532 µM.

Regarding `Cc1cc(COCc2cocn2)ccc1C(=O)NC1(c2cc(-c3cc(C(=O)N(C)C)n[nH]3)cc3ncccc23)CC1` [Example 350, N,N-dimethyl-5-(5-(1-(2-methyl-4-((oxazol-4-ylmethoxy)methyl)benzamido)cyclopropyl)quinolin-7-yl)-1H-pyrazole-3-carboxamide], the IC50 was below 0.001 µM.

As for `Cc1ccc(N2CCNCC2)cc1C(=O)NC(C)c1cc(-c2cnn(C)c2)cc2ccccc12` (centres unmarked) [Example 59, 2-methyl-N-(1-(3-(1-methyl-1H-pyrazol-4-yl)naphthalen-1-yl)ethyl)-5-(piperazin-1-yl)benzamide], the IC50 worked out at 0.025 µM.

These data come from patent US20240245673A1, “Papain-like protease (PLpro) inhibitors” (Pfizer Inc., priority 2022, published 2024).
